# Test results reported in patent US20100305068A1, “COMPOUNDS AND METHODS FOR MODULATING PROTEIN TRAFFICKING” (priority 2006, published 2010).
# Where two headings read alike, the source gives them in different places.
# Test system: pdr5 ypt1^ts cells
# Test: microbe, parasite or virus in culture
# Type: cell-based, yeast
# Details: for optical density, 3.13 uM / optical density, 12.5 uM / optical density, 50 uM: Table 3, background (0 uM) 0.077; for optical density, 3.13 uM: 3.13 uM compound; for optical density, 12.5 uM: 12.5 uM compound; for optical density, 50 uM: 50 uM compound; for minimal effective concentration: Saccharomyces cerevisiae, read-out: ypt1-ts MRC (minimal rescue concentration); for optical density, ypt1-ts, 0.39: 0.39 μM compound; for optical density, ypt1-ts, 0.39 / optical density, ypt1-ts, 0.78 / optical density, ypt1-ts, 1.56 / optical density, ypt1-ts, 3.13 / optical density, ypt1-ts, 6.25 / optical density, ypt1-ts, 12.5 / optical density, ypt1-ts, 25: background (0 μM) 0.058; for optical density, ypt1-ts, 0.78: 0.78 μM compound; for optical density, ypt1-ts, 1.56: 1.56 μM compound; for optical density, ypt1-ts, 3.13: 3.13 μM compound; for optical density, ypt1-ts, 6.25: 6.25 μM compound; for optical density, ypt1-ts, 12.5: 12.5 μM compound; for optical density, ypt1-ts, 25: 25 μM compound
# Source text: The activity of the compounds as modulators of protein trafficking may be measured in the assays described herein that evaluate the ability of a compound to rescue an impairment in protein trafficking. For example, the yeast mutant cell line ypt1^ts can be used to identify compounds that rescue cells from the lethal phenotype of a mutant YPT1 allele (see, e.g., Examples and Schmitt et al. (1988) Cell 53:635-47). The activity may be measured, for example, in a whole yeast cell assay using 384-well screening protocol and an optical density measurement.
# The yeast mutant cell line ypt1^ts suppresses, in a temperature dependent fashion, the dominant-lethal phenotype of a mutant YPT1 allele (Schmitt et al. (1988) Cell 53:635-47). ypt1^ts cells grow normally at temperatures up to 30° C., but are growth arrested at 37° C. (Id.).
# A library of compounds (“The Spectrum Collection”) obtained from Microsource Discovery Systems, Inc. (Gaylordsville, Conn.) was screened to assess the ability of individual compounds to restore growth of ypt1^ts cells. Screening was carried out using ypt1^ts cells containing a mutation in the pdr5 gene (resulting in inactivation of a membrane efflux pump). The effect of the compounds was measured in pdr5 ypt1^ts cells cultured at 37° C.
# [1] = Table 2, lowest concentration tested giving growth above the 0 μM background, 37° C.
structure (smiles),measurement,setting,value
"COc1ccccc1-c1cc(=O)c2cccc(OC)c2o1 [8,2′- DIMETHOXY- FLAVONE]","optical density, 3.13 uM",37° C.,0.083
same,"optical density, 12.5 uM",37° C.,0.234
same,"optical density, 50 uM",37° C.,0.674
"COC(=O)C[C@H]1C(C)(C)C2(O)OC34CC2C(=O)[C@]1(C)C3CC[C@]1(C)C4=CC(=O)O[C@H]1c1ccoc1 (stereo partly drawn) [8beta- HYDROXY- CARAPIN, 3,8- HEMIACETAL]","optical density, 3.13 uM",37° C.,0.151
same,"optical density, 12.5 uM",37° C.,0.383
same,"optical density, 50 uM",37° C.,0.486
"Cc1ccc2c(c1)CC[C@H]1CC(=O)CC[C@]21C [13-METHYL- 4,4-BISNOR- 8,11,13- PODO- […]- 3-ONE]","optical density, 3.13 uM",37° C.,0.082
same,"optical density, 12.5 uM",37° C.,0.152
same,"optical density, 50 uM",37° C.,0.424
"COc1cccc2c1CCC1CC(=O)CC[C@]21C (stereo partly drawn) [14-METHOXY-4,4- BISNOR-8,11,13- PODOCARPATRIEN-3- ONE]",minimal effective concentration,[1],12.5 µM
same,"optical density, ypt1-ts, 0.39","Table 2, 37° C.",0.088
same,"optical density, ypt1-ts, 0.78","Table 2, 37° C.",0.074
same,"optical density, ypt1-ts, 1.56","Table 2, 37° C.",0.075
same,"optical density, ypt1-ts, 3.13","Table 2, 37° C.",0.088
same,"optical density, ypt1-ts, 6.25","Table 2, 37° C.",0.096
same,"optical density, ypt1-ts, 12.5","Table 2, 37° C.",0.191
same,"optical density, ypt1-ts, 25","Table 2, 37° C.",0.48
COC(=O)C[C@H]1C(C)(C)C(=O)[C@@H]2CC3=C4CC(OC)O[C@@H](c5ccoc5)[C@]4(C)CCC3[C@@]1(C)C2=O (stereo partly drawn) [16-DEOXO- MEXICANOLIDE 16-METHYL ETHER],"optical density, 3.13 uM",37° C.,0.3
same,"optical density, 12.5 uM",37° C.,0.528
same,"optical density, 50 uM",37° C.,0.55
"CC(C)c1ccc2c(c1)CCC1[C@](C)(CN)CCC[C@]21C.O=S(=O)(O)O (stereo partly drawn) [18-AMINO ABIETA- 8,11,13- TRIENE SULFATE]","optical density, 3.13 uM",37° C.,0.055
same,"optical density, 12.5 uM",37° C.,0.06
same,"optical density, 50 uM",37° C.,0.378
"COc1ccc2cc([C@H](C)C(=O)O)ccc2c1 [(+)NAPROXEN, reference compound]",minimal effective concentration,,25 µM
CC(C)C1=CC2=CC[C@H]3[C@](C)(CO)CCC[C@]3(C)C2CC1 (stereo partly drawn) [ABIETANOL],"optical density, 3.13 uM",37° C.,0.102
same,"optical density, 12.5 uM",37° C.,0.274
same,"optical density, 50 uM",37° C.,0.29
CC(C)C1=CC2=CCC3[C@](C)(CCC[C@]3(C)C(=O)O)C2CC1 (stereo partly drawn) [ABIETIC ACID],minimal effective concentration,[1],3.13 µM
same,"optical density, ypt1-ts, 0.39","Table 2, 37° C.",0.107
same,"optical density, ypt1-ts, 0.78","Table 2, 37° C.",0.079
same,"optical density, ypt1-ts, 1.56","Table 2, 37° C.",0.1
same,"optical density, ypt1-ts, 3.13","Table 2, 37° C.",0.165
same,"optical density, ypt1-ts, 6.25","Table 2, 37° C.",0.173
same,"optical density, ypt1-ts, 12.5","Table 2, 37° C.",0.528
same,"optical density, ypt1-ts, 25","Table 2, 37° C.",0.61
"CC(=O)Nc1ccc(OC(=O)c2ccccc2O)cc1 [ACETAMINOSALOL, reference compound]",minimal effective concentration,[1],12.5 µM
same,"optical density, ypt1-ts, 0.39","Table 2, 37° C.",0.085
same,"optical density, ypt1-ts, 0.78","Table 2, 37° C.",0.078
same,"optical density, ypt1-ts, 1.56","Table 2, 37° C.",0.083
same,"optical density, ypt1-ts, 3.13","Table 2, 37° C.",0.085
same,"optical density, ypt1-ts, 6.25","Table 2, 37° C.",0.103
same,"optical density, ypt1-ts, 12.5","Table 2, 37° C.",0.127
same,"optical density, ypt1-ts, 25","Table 2, 37° C.",0.198
"CC(=O)OCC[N+](C)(C)C.[Cl-] [ACETYLCHOLINE, reference compound]",minimal effective concentration,[1],6.25 µM
same,"optical density, ypt1-ts, 0.39","Table 2, 37° C.",0.104
same,"optical density, ypt1-ts, 0.78","Table 2, 37° C.",0.087
same,"optical density, ypt1-ts, 1.56","Table 2, 37° C.",0.085
same,"optical density, ypt1-ts, 3.13","Table 2, 37° C.",0.113
same,"optical density, ypt1-ts, 6.25","Table 2, 37° C.",0.164
same,"optical density, ypt1-ts, 12.5","Table 2, 37° C.",0.27
same,"optical density, ypt1-ts, 25","Table 2, 37° C.",0.352
"C[n+]1c2cc(N)ccc2cc2ccc(N)cc21.[Cl-] [ACRIFLAV- INIUM HYDRO- CHLORIDE, reference compound]","optical density, 3.13 uM",37° C.,0.126
same,"optical density, 12.5 uM",37° C.,0.229
same,"optical density, 50 uM",37° C.,0.151
CCc1cccc(CC)c1N(COC)C(=O)CCl [ALACHLOR],"optical density, 3.13 uM",37° C.,0.101
same,"optical density, 12.5 uM",37° C.,0.142
same,"optical density, 50 uM",37° C.,0.45
